From patent publication US20240050432A1 (Infinity Pharmaceuticals, Inc., priority 2020, published 2024)
Like-named read-outs stand apart in the source and are kept apart here.

How the values were obtained:
Assay type in all cases: in vivo, human
PD-L1 = test: Paired tumor biopsies in TNBC phase II study: PD-L1 expression; conditions: 11 paired tumor biopsies; triplet regimen
[1] = Hepatic TEAEs by eganelisib dose in combination with nivolumab (phase 1 Part C, phase 2)
[2] = Eganelisib exposures (Cmax, AUC0-24 hrs) with combination therapies, 3 clinical studies; conditions: for observed highest individual concentration value: PK cutoff June-July 2020; for Cmax / AUC(0-t): human, in vivo
[3] = 30 mg QD, C1D1, model-predicted
[4] = 30 mg QD, C2D1, model-predicted
[5] = 40 mg QD, C1D1, model-predicted
[6] = 40 mg QD, C2D1, model-predicted

Cmax, Max [2, 3]: 1750 ng/mL
Cmax, Min [2, 3]: 637 ng/mL
Cmax, Max [2, 4]: 4070 ng/mL
Cmax, Min [2, 4]: 684 ng/mL
observed highest individual concentration value ([2]; 30 mg QD, across all 3 studies): 4.42 µg/mL
Cmax, Max [2, 5]: 3630 ng/mL
Cmax, Min [2, 5]: 346 ng/mL
Cmax, Max [2, 6]: 8830 ng/mL
Cmax, Min [2, 6]: 480 ng/mL
observed highest individual concentration value ([2]; 40 mg QD, across all 3 studies): 11.4 µg/mL
observed highest individual concentration lower for 30 mg QD versus 40 mg QD ([2]; across all 3 studies): 61%
Cmax ([2]; 30 mg QD, C1D1, model-predicted, read-out: Cmax, Mean): 1020 ng/mL
Cmax ([2]; 30 mg QD, C1D1, model-predicted, read-out: Cmax, Median): 978 ng/mL
AUC(0-t) ([2]; 30 mg QD, C2D1, model-predicted, read-out: AUC0-24 hrs, GeoMean): 29200 ng·h/mL
AUC(0-t) ([2]; 30 mg QD, C2D1, model-predicted, read-out: AUC0-24 hrs, Mean): 33600 ng·h/mL
AUC(0-t) ([2]; 30 mg QD, C2D1, model-predicted, read-out: AUC0-24 hrs, Median): 25800 ng·h/mL
Cmax ([2]; 30 mg QD, C2D1, model-predicted, read-out: Cmax, GeoMean): 1680 ng/mL
Cmax ([2]; 30 mg QD, C2D1, model-predicted, read-out: Cmax, Median): 1530 ng/mL
AUC(0-t) ([2]; 40 mg, 40 mg QD, C1D1, model-predicted, read-out: AUC0-24 hrs, GeoMean): 26200 ng·h/mL
AUC(0-t) ([2]; 40 mg, 40 mg QD, C1D1, model-predicted, read-out: AUC0-24 hrs, Mean): 28400 ng·h/mL
AUC(0-t) ([2]; 40 mg, 40 mg QD, C1D1, model-predicted, read-out: AUC0-24 hrs, Median): 26000 ng·h/mL
Cmax ([2]; 40 mg, 40 mg QD, C1D1, model-predicted, read-out: Cmax, GeoMean): 1550 ng/mL
Cmax ([2]; 40 mg, 40 mg QD, C1D1, model-predicted, read-out: Cmax, Mean): 1650 ng/mL
Cmax ([2]; 40 mg, 40 mg QD, C1D1, model-predicted, read-out: Cmax, Median): 1560 ng/mL
AUC(0-t) ([2]; 40 mg, 40 mg QD, C2D1, model-predicted, read-out: AUC0-24 hrs, GeoMean): 42100 ng·h/mL
AUC(0-t) ([2]; 40 mg, 40 mg QD, C2D1, model-predicted, read-out: AUC0-24 hrs, Mean): 49600 ng·h/mL
AUC(0-t) ([2]; 40 mg, 40 mg QD, C2D1, model-predicted, read-out: AUC0-24 hrs, Median): 41400 ng·h/mL
Cmax ([2]; 40 mg, 40 mg QD, C2D1, model-predicted, read-out: Cmax, GeoMean): 2470 ng/mL
Cmax ([2]; 40 mg, 40 mg QD, C2D1, model-predicted, read-out: Cmax, Mean): 2770 ng/mL
Cmax ([2]; 40 mg, 40 mg QD, C2D1, model-predicted, read-out: Cmax, Median): 2420 ng/mL
AUC(0-t) ([2]; oral, 30 mg QD, C1D1, model-predicted, read-out: AUC0-24 hrs, GeoMean): 16100 ng·h/mL
AUC(0-t) ([2]; oral, 30 mg QD, C1D1, model-predicted, read-out: AUC0-24 hrs, Mean): 16700 ng·h/mL
AUC(0-t) ([2]; oral, 30 mg QD, C1D1, model-predicted, read-out: AUC0-24 hrs, Median): 15900 ng·h/mL
Cmax ([2]; oral, 30 mg QD, C1D1, model-predicted, read-out: Cmax, GeoMean): 993 ng/mL
Cmax ([2]; oral, 30 mg QD, C2D1, model-predicted, read-out: Cmax, Mean): 1860 ng/mL
Compound: C[C@H](NC(=O)c1c(N)nn2cccnc12)c1cc2cccc(C#Cc3cnn(C)c3)c2c(=O)n1-c1ccccc1 [Compound 1, eganelisib]
change of PD-L1 status/expression in paired tumor biopsies (PD-L1): on-mechanism conversion of patients from PD-L1(−) to PD-L1(+) and increase in PD-L1 expression in PD-L1(+) patients
subjects with Grade 3 hepatic TEAE ([1]; eganelisib 30 mg QD with nivolumab 480 mg Q4W): < 20%
subjects with Hepatic TEAEs ([1]; eganelisib 40 mg QD with nivolumab 480 mg Q4W): > 20%
